This is an account of results in publication PMC2649378 (European Journal of Pharmacology, 2008).

One experiment addresses T1, 5-HT3A receptors (Mus musculus, UniProt P23979).
T1 construct: expressed in transfected cells; host or cells: Xenopus laevis oocytes injected with cRNA (pGEMHE)
T1 sequence (P23979 24-489): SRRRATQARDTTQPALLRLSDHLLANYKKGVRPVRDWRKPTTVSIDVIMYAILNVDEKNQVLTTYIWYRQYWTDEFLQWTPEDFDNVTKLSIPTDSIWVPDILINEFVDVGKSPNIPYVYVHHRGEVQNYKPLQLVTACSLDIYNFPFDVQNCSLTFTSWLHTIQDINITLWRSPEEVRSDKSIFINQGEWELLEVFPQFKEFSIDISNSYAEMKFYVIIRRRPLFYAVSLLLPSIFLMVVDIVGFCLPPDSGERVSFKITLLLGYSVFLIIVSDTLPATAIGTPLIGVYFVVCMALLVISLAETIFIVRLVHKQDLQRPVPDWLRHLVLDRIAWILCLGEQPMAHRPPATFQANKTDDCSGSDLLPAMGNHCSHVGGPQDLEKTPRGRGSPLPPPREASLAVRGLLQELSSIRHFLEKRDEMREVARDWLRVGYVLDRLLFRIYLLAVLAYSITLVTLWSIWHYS
Kind of experiment: Agonist-induced currents in Xenopus oocytes expressing 5-HT3A receptors (OpusXpress electrophysiology). The experiment is classed as cell-based. How it is done:
Harvested stage V–VI Xenopus oocytes were washed in six changes of ND96 (96 mM NaCl, 2 mM KCl, 1 mM MgCl2, 1.8 mM CaCl2, 5 mM HEPES, pH 7.5), de-folliculated in 1.5 mg ml^− 1 collagenase Type 1A for approximately 2 h. Enzyme treatment was terminated by washing in six changes of ND96 and oocytes were stored in ND96 containing 2.5 mM sodium pyruvate, […] and 0.7 mM theophylline.
(§1) Mouse 5-HT3A (accession number: AY605711) or 5-HT3B (accession number: NM_020274, kindly provided by Ewen Kirkness) subunit cDNAs were cloned into pGEMHE for oocyte expression ([Liman et al., 1992]). cRNA was in vitro transcribed from linearised (NheI) plasmid cDNA template using the mMessage mMachine T7 kit (Ambion, Austin, Texas, USA). Stage V and VI oocytes were injected with 50 ng–100 ng cRNA, and recorded from 1–4 days post-injection. For expression in HEK 293 cells, 5-HT3 receptor subunit cDNAs were cloned into pcDNA3.1 (Invitrogen Ltd., Paisley, UK.). Mutagenesis reactions were performed using the Kunkel method and confirmed by DNA sequencing. Cells were transfected using calcium phosphate precipitation at 80–90% confluency ([Jordan et al., 1996]). Following transfection cells were incubated for 3–4 days before assay.
Agonist-induced currents were recorded at 22–25 °C from individual oocytes using the OpusXpress system (Molecular Devices Axon Instruments, Union City, CA). […] The holding potential was − 60 mV.

Experiment [1] concerns the target T2, N128A mutant 5-HT3A receptors (Mus musculus, UniProt P23979, N128A).
T2 construct: expressed in transfected cells; host or cells: HEK 293 cells (pcDNA3.1); Kunkel mutagenesis
T2 sequence (P23979 24-489 N128A): T1 sequence (P23979 24-489) with N105A
Kind of experiment: [3H]granisetron competition binding, N128A mutant 5-HT3A receptors. How it is done:
as §1, with “Cells were transfected using calcium phosphate precipitation at 80–90% confluency ([Jordan et al., 1996]). Following transfection cells were incubated for 3–4 days before assay.” left out
This was undertaken in HEK 293 cells which provide an established and robust method of studying ligand binding. […] Radioactivity was determined by scintillation counting using a Beckman LS6000SC (Fullerton, California, USA). Competition binding data were analyzed by iterative curve fitting (GraphPad Prism v3.02, GraphPad Software, San Diego, California, USA), according to the equation: y=Bmin+Bmax−Bmin/1+10^[L]−logIC50 where Bmin is the lowest total binding, Bmax is the maximum specific binding at equilibrium, [L] is the concentration of competing ligand and IC50 is the concentration of competing ligand that blocks half of the specific bound radioligand. […]

For orientation: EC50 means the midpoint of the concentration-response curve. Read a high EC50 as lower potency in that assay. The term Ki denotes the equilibrium dissociation constant of an inhibitor or competing ligand from its target.

Substitutions are numbered along the chain they refer to. Values joined by “and” are separate entries in the source; they are usually repeats but may differ in a detail not shown here. Equal values may be shown once.

`NCCc1c[nH]c2ccc(F)cc12` [5-FT, 5-fluorotryptamine]: the agonist character result at 5-HT3A receptors (5-HT3A receptors) is recorded as “partial agonist”. Further, the “nH (Hill slope)” value on 5-HT3A receptors (5-HT3A receptors in Xenopus oocytes) is 2.4 and 2.4 ± 0.5. On 5-HT3A receptors (5-HT3A receptors in Xenopus oocytes, maximal concentration), the “Relative efficacy Rmax = Imax drug / Imax 5-HT” value was 0.64 and 0.64 ± 0.03. Further, the EC50 on 5-HT3A receptors (EC50, 5-HT3A receptors in Xenopus oocytes, holding potential -60 mV) is 16 µM. On 5-HT3A receptors (discussion, stated for 5-HT3 receptors (5-HT3A and 5-HT3AB) without distinction), the “Rmax, approximate summary value” is reported as approximately 0.5. Also, in experiment [1], the inhibitory constant (Ki) came out at 2.43 ± 0.47 µM.
